Test results taken from patent US8969413B2.

How the values were obtained:
[1] = target: T1, mGAT2 (Mus musculus, UniProt P31651); conditions: data from Bolvig et al. 1999; read-out: mGAT2 uptake IC50; cited from earlier work
T1 construct: expressed in transfected cells

[2] = target: T2, human ρ1 GABAC receptors (Homo sapiens, UniProt P24046); experiment: GABAC receptor two-electrode voltage clamp in Xenopus laevis oocytes; type: cell-based; conditions: GABA 1 μM (EC80), clamped at −60 mV
T2 construct: expressed in transfected cells; host or cells: Xenopus laevis oocytes injected with ρ1 mRNA
T2 sequence (P24046 21-479 limits assumed): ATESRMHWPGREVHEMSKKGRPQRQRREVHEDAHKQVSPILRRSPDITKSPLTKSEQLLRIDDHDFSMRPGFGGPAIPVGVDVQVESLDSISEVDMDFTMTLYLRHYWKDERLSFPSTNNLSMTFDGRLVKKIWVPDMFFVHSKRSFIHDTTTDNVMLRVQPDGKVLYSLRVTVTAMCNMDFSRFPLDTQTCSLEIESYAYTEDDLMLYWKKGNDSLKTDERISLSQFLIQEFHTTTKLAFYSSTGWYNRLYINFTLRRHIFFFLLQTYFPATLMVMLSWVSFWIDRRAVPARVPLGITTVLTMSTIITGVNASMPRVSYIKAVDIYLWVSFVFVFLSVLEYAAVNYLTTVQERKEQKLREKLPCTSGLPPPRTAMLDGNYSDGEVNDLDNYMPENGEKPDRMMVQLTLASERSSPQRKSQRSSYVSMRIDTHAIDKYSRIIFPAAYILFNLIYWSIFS
Experimental: Human ρ1 cDNA encapsulated in pcDNA1.1 was linearized with Not1. Linearized cDNA was transcribed to mRNA using the T7 “mMESSAGE mMACHINE” kit (Ambion Inc. Austin, Tex., USA) as previously described. […] Eur. J. Pharmacol. 2001, 430, 185-192. GABAC receptor activity assays were performed in oocytes harvested from Xenopus laevis (housed in the Department of Veterinary Science at the University of Sydney) and defolliculated. The oocytes were stored in ND96 solution (in mM) NaCl (96), KCl (2), MgCl2 (1), CaCl2 (1.8), HEPES (hemi-Na salt; 5) supplemented with sodium pyruvate (2.5), theophylline (0.5), and 50 μg/ml^−1 gentamycin for 2-5 days post-injection.
Electrophysiological methods were performed as previously described. Hertz L, Juurlink B H J, Hertz E, Fosmark H and Schousboe A. Preparation of Primary Cultures of Mouse (Rat) Astrocytes, in A Dissection and Tissue Culture Mnual of the Nervous System (Shahar A, de Vellis J, Vernadakis A and Haber B eds) pp 105-108, Alan R. Liss, Inc., New York, 1989 Stage V-VI oocytes were injected with 10 ng 50 nl^−1 of ρ1 mRNA and then stored at 16° C. Recordings of receptor activity were obtained for 2-5 days by a two-electrode voltage clamp by means of a Geneclamp 500 amplifier (Axon Instruments Inc., Foster City, Calif.), a MacLab 2e recorder (AD Instruments, Sydney, NSW), and Chart version 3.6.3 program. Oocytes were voltage clamped at −60 mV, and the preparation was continually perfused with ND96 solution at room temperature. […] Compound 2 (CPP-115) was tested on three oocytes from at least two harvests.

[3] = target: T3, hGAT-2 (Homo sapiens, UniProt Q9NSD5); conditions: data from Kvist et al. 2009; read-out: hGAT-2 uptake IC50; cited from earlier work
T3 construct: expressed in transfected cells; host or cells: tsA201 cells, transient (PolyFect)
T3 sequence (Q9NSD5 whole entry): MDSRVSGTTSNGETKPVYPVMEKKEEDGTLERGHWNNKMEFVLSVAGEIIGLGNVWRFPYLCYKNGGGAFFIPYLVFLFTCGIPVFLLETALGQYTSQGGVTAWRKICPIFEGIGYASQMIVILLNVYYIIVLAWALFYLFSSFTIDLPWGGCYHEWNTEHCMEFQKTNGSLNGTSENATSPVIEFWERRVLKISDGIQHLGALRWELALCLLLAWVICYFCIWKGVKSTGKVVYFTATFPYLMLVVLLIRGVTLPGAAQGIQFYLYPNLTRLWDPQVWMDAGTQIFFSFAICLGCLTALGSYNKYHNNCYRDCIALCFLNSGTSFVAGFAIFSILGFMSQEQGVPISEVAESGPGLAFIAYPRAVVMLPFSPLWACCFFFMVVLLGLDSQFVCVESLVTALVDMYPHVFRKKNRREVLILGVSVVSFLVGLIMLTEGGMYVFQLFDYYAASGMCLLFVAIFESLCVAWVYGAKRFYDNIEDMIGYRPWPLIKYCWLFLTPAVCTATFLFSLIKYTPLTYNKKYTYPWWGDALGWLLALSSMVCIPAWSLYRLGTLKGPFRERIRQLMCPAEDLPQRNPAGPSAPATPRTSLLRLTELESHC

[4] = target: T4, hGAT-3 (Homo sapiens, UniProt P48066); conditions: data from Kvist et al. 2009; read-out: hGAT-3 uptake IC50; cited from earlier work
T4 construct: expressed in transfected cells; host or cells: tsA201 cells, transient (PolyFect)
T4 sequence (P48066 whole entry): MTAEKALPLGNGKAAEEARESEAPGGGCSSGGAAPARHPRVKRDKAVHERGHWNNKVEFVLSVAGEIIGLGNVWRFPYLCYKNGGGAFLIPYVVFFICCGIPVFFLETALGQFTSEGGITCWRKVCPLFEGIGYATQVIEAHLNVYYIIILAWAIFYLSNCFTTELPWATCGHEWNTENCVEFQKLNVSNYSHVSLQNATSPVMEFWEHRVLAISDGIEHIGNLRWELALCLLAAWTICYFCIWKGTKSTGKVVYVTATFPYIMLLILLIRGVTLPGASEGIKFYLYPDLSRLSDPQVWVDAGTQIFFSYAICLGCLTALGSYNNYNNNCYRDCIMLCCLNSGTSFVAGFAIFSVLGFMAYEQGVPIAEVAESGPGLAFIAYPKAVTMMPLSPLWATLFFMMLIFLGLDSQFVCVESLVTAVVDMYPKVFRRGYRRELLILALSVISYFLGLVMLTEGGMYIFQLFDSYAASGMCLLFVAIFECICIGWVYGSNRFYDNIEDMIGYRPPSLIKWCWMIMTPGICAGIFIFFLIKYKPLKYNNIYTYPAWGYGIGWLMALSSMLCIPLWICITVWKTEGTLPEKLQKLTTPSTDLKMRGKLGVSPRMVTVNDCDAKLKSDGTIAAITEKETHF

[5] = tested on: patients; conditions: cited from earlier work
[6] = tested on: Mice; experiment: subcutaneous picrotoxin (scPIC); type: in vivo; conditions: Single IP drug dose, 2.5 mg/kg PIC; up to 100 mg/kg
Experimental: Bicuculline (Bic) and Picrotoxin (Pic) are chemoconvulsants that cause clonic seizures in a manner similar to Metrazol (see scMET test). […] Therefore, as much as possible it is useful to differentiate novel AEDs pharmacologically. […]. At a previously determined time of peak effect (TPE), the animals are given a subcutaneous injection of either of the noted chemo-convulsants using the convulsive dose (CD97—a dose of 2.7 or 2.5 mg/kg, for Bic and Pic, respectively). The experimental animals are placed in isolation cages to minimize possible crowding stresses (Swinyard et al., 1961) and observed for the next 30 minutes (for Bic) or 45 minutes (for Pic) for the presence or absence of a seizure. An episode of clonic spasms, approximately 3-5 seconds, of the fore and/or hindlimbs, jaws, or vibrissae is used as the experimental endpoint.

[7] = tested on: humans; conditions: trial of 103 subjects, cocaine dependence; cited from earlier work
[8] = tested on: Mice; experiment: minimal clonic seizure (6 Hz) test; type: in vivo; conditions: Single IP drug dose, 3 seconds; for ED50: Mus musculus, ip; for ED50 / 6 Hz TPE: corneal electrode
Text: Some clinically useful AEDs are ineffective in the standard MES and scMET tests but still have anticonvulsant activities in vivo. In order to identify potential AEDs with this profile, compounds may be tested in the minimal clonic seizure (6 Hz or ‘psychomotor’) test (Barton et al., 2001). […] Test compounds are pre-administered to mice via i.p. injection. At varying times, individual mice (four per time point) are challenged with sufficient current delivered through corneal electrodes to elicit a psychomotor seizure in 97% of animals (32 mA for 3 s) (Toman et al., 1952). Untreated mice will display seizures characterized by a minimal clonic phase followed by stereotyped, automatistic behaviors described originally as being similar to the aura of human patients with partial seizures. Animals not displaying this behavior are considered protected. The test may be evaluated quantitatively by measuring the responses at varying doses at a determined time of peak effect (TPE). This test may also be conducted at 22 and 44 mA if requested by ASP staff.

[9] = tested on: Sprague-Dawley rats; conditions: vigabatrin, Ashby et al. 1999; cited from earlier work
[10] = tested on: human brain GABA; conditions: after a single dose; cited from earlier work
[11] = tested on: Mice; experiment: corneal kindling; type: in vivo; conditions: Single IP drug dose, 3 secs; for ED50: read-out: Corn. Kind. ED50
Text: Mice are kindled electrically with 3 sec stimulation, 8 mA, 60 Hz, and corneal electrodes to a criterion of 10 consecutive Stage 5 seizures (facial clonus and head nodding progressing to forelimb clonus, and finally rearing and falling accompanied by a generalized clonic seizure as described by Racine). Stage 5 is generally reached after twice daily stimulation for 8 days. With continued stimulation once a day, animals usually progress to a reproducible Stage 5 after 10-14 additional days. At least 72 hours after the mice have been kindled, the test substance is administered either i.p. or p.o. and, at the previously determined TPE, each animal is given the electrical stimulus indicated above. Following stimulation, the animals are observed for the presence or absence of the rearing and falling criteria of a Stage 5 seizure. Treated animals not displaying a Stage 3, 4, or 5 seizure are considered protected. The dose of the test substance is varied between the limits of 0 and 100% efficacy, and the ED50 (mean effective dose) and 95% confidence intervals calculated by probit analysis. Mean values and the S.E.M. are calculated for the length of clonus and seizure duration and p values are determined by the Student's t-test

[12] = tested on: Sprague-Dawley rats; conditions: vigabatrin, earlier work; cited from earlier work
[13] = tested on: Mice; experiment: subcutaneous Metrazol seizure threshold test (scMET); type: in vivo; conditions: Single IP drug dose, Metrazol 85 mg/kg; up to 1500 mg/kg
Experimental: (§1) Subcutaneous injection of the convulsant Metrazol produces clonic seizures in laboratory animals. […] Animals are pretreated with various doses of the test compound given by i.p. injection. At the previously determined TPE of the test compound, the dose of Metrazol which will induce convulsions in 97% of animals (CD97; 85 mg/kg mice) is injected into a loose fold of skin in the midline of the neck. The animals are placed in isolation cages to minimize stress (Swinyard et al, 1961) and observed for the next 30 minutes for the presence or absence of a seizure. An episode of clonic spasms, approximately 3-5 seconds, of the fore and/or hindlimbs, jaws, or vibrissae is taken as the endpoint.

[14] = tested on: Rat; experiment: as above; type: in vivo; conditions: 7 days IP, at 600 mg/kg, Metrazol 70 mg/kg
Experimental: as §1

[15] = tested on: Sprague Dawley rats; experiment: cocaine induced dopamine surge in nucleus accumbens (FIG. 3); conditions: vigabatrin 300 mg/kg single dose
[16] = tested on: Sprague-Dawley rats; conditions: saline/cocaine pairings, cocaine 20 mg/kg i.p.
[17] = tested on: Sprague-Dawley rats; experiment: μPET imaging of 11C-raclopride binding after cocaine; conditions: cocaine 5 mg/kg intravenous, average, preliminary
[18] = target: γ-aminobutyric acid aminotransferase (GABA-AT) (Sus scrofa, UniProt P80147); conditions: cited from earlier work
γ-aminobutyric acid aminotransferase (GABA-AT), sequence (P80147 29-500): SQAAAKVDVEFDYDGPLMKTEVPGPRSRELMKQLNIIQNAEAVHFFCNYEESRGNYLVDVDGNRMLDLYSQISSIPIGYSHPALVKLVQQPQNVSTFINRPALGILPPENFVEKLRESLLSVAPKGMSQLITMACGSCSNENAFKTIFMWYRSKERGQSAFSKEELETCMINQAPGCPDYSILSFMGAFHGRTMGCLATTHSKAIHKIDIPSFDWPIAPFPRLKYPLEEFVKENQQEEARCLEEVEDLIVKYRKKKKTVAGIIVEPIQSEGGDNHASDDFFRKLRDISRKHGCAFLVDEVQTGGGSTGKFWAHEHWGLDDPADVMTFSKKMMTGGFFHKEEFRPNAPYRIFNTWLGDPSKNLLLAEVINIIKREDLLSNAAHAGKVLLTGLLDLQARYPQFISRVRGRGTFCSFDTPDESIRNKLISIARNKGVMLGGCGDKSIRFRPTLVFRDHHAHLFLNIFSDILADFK

T1 sequence (P31651 whole entry): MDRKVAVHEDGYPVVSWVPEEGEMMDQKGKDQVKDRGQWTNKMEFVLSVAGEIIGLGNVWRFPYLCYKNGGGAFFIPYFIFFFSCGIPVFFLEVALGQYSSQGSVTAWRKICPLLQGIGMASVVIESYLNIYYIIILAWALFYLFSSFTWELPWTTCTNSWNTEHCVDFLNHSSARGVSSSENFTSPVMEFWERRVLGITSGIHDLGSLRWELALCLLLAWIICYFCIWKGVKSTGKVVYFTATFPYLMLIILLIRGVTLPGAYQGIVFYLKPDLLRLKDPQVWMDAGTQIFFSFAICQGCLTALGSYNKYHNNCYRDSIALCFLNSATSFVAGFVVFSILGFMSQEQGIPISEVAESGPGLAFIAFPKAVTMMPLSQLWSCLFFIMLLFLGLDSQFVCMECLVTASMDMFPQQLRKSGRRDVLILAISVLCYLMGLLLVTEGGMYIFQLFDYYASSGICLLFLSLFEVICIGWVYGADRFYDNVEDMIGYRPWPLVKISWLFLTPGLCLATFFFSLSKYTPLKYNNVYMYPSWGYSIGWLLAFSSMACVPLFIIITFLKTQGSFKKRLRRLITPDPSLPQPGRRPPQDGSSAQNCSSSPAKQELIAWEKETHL

NCCCC(=O)O [GABA, γ-aminobutyric acid]
IC50 [1]: 51 µM | activation of current in oocytes [2]: activated an inward current | IC50 [3]: 11 µM | IC50 [4]: 10 µM

C=CC(N)CCC(=O)O (centres unmarked) [Vigabatrin, γ-vinyl GABA, reference compound]
share of patients affected with visual field defects ([5]; after multiple years of therapy): One third or more of patients | patients with visual field defects ([5]; following chronic administration): 25-50% | occurrence of visual field defect ([5]; shorter duration exposure, stimulant addiction studies): does not show any occurrence of visual field defect | time after initiation of therapy at which visual field defects were detectable ([5]; some patients): less than 2 months | scPIC protection [6]: Minimal protection up | subjects who achieved abstinence [7]: 28.0% | ED50 ([8]; 32 mA): 23.4 mg/kg | ED50 ([8]; 44 mA): 154 mg/kg | 6 Hz protection ([8]; 22 mA, all times @ 100 mg/kg): “good protection” @ | 6 Hz TPE ([8]; 32 mA): TPE 4 hours | 6 Hz TPE ([8]; 44 mA): TPE 4 hours | dose effective previously against cocaine-induced dopamine increase [9]: 300 mg/kg | brain GABA levels [10]: remain substantially elevated for several days | ED50 ([11]; 192 h, primed @ 8 mA, 60 Hz, for 8 days): 80.4 mg/kg | ED50 ([11]; 288 h, primed @ 3 mA, 50 Hz, for 12 days): 159 mg/kg | Corn. Kind. TPE ([11]; primed @ 8 mA, 60 Hz, for 8 days): TPE 4 hours | dose required for similar findings (block of cocaine-induced CPP) [12]: 300 mg/kg | scMET protection [13]: Minimal protection up | scMET protection [14]: 75% protection at 600 | dopamine increase after cocaine challenge [15]: > 300% of baseline

COC(=O)[C@H]1[C@@H](OC(=O)c2ccccc2)C[C@@H]2CC[C@H]1N2C [cocaine, reference compound]
time spent in the other chamber [16]: 4.8 ± 2.8 min | time spent in cocaine-paired chamber ([16]; p<0.01): 12.2 ± 1.7 min | reduction of 11C-raclopride binding [17]: 22%

N[C@@H]1C=C[C@H](C(=O)O)C1 [compound 1, (1R,4S)-4-amino-cyclopent-2-ene-1-carboxylic acid]
specificity constant relative to GABA ([18]; substrate of GABA-AT): almost five times greater than that of GABA

C=C1C[C@H](C(=O)O)C[C@@H]1N [compound 6, (1S,3S)-3-amino-4-methylenyl-1-cyclopentanoic acid]
inactivation of GABA-AT ([18]; without 2-mercaptoethanol): inactivation of GABA-AT was observed
